Test results from PubChem BioAssay AID344 (DTP/NCI, 2004).
Several values for one entry are separate records, joined by “and”; a condition that tells them apart may be missing. Identical values can stand only once. Inconclusive results and toxic doses are left out.

Tested on: mice, LPC-1 plasma cell tumor ip, median survival T/C
Assay: NCI In Vivo Anticancer Drug Screen. Data for tumor model Lieberman Plasma Cell No. 1 (LPC-1) (intraperitoneal) in unknown mice
Details: endpoint: median survival time, higher = longer survival
Description: The antitumor activity of compounds was measured in mice bearing transplantable tumors. Survival or tumor size were measured and the results are expressed as the measurement made in the treated group (T) divided by the measurement made in the vehicle treated control group (C). The tumor model used in this assay is Lieberman Plasma Cell No. 1 (LPC-1) (intraperitoneal) in unknown mice

[1] = dose: 180.0 mg/kg/injection, schedule: Q01DX028 (sc), vehicle: saline

For O=c1[nH]c(=O)n(C2CC(O)C(CO)O2)cc1F (stereo not given), the T/C (dose: 108.0 mg/kg/injection, schedule: Q01DX028 (sc), vehicle: saline) was 102 % of control and 109 % of control, the T/C [1] was 97 % of control and the T/C (dose: 300.0 mg/kg/injection, schedule: Q01DX028 (sc), vehicle: saline) was 91 % of control. The T/C (dose: 500.0 mg/kg/injection, schedule: Q01DX028 (sc), vehicle: saline) was 86 % of control.
In the case of O=P1(N(CCCl)CCCl)NCCCO1 (stereo not given), the T/C (dose: 2.0 mg/kg/injection, schedule: Q01DX028 (sc), vehicle: saline) is reported as 86 % of control, the T/C (dose: 3.12 mg/kg/injection, schedule: Q01DX028 (sc), vehicle: saline) is reported as 109 % of control and the T/C (dose: 4.0 mg/kg/injection, schedule: Q01DX028 (sc), vehicle: saline) is reported as 100 % of control. For the same compound, the T/C (dose: 6.0 mg/kg/injection, schedule: Q01DX028 (sc), vehicle: saline) was 114 % of control, the T/C (dose: 8.0 mg/kg/injection, schedule: Q01DX028 (sc), vehicle: saline) was 161 % of control and the T/C (dose: 8.4 mg/kg/injection, schedule: Q01DX028 (sc), vehicle: saline) was 182 % of control and 184 % of control and 213 % of control. The T/C (dose: 10.0 mg/kg/injection, schedule: Q01DX Z (sc), vehicle: saline) was 194 % of control, the T/C (dose: 12.0 mg/kg/injection, schedule: Q01DX028 (sc), vehicle: saline) was 243 % of control and the T/C (dose: 12.5 mg/kg/injection, schedule: Q01DX011 (sc), vehicle: saline) was 190 % of control. The T/C (dose: 12.5 mg/kg/injection, schedule: Q01DX024 (sc), vehicle: saline) was 229 % of control, the T/C (dose: 14.0 mg/kg/injection, schedule: Q01DX Z (sc), vehicle: saline) was 190 % of control and the T/C (dose: 15.62 mg/kg/injection, schedule: Q01DX010 (sc), vehicle: saline) was 150 % of control. The T/C (dose: 16.0 mg/kg/injection, schedule: Q01DX028 (sc), vehicle: saline) was 167 % of control and 212 % of control, the T/C (dose: 20.0 mg/kg/injection, schedule: Q01DX Z (sc), vehicle: saline) was 155 % of control and the T/C (dose: 23.0 mg/kg/injection, schedule: Q01DX Z (sc), vehicle: saline) was 166 % of control. The T/C (dose: 24.0 mg/kg/injection, schedule: Q01DX028 (sc), vehicle: saline) was 114 % of control, the T/C (dose: 25.0 mg/kg/injection, schedule: Q01DX011 (sc), vehicle: saline) was 190 % of control and the T/C (dose: 25.0 mg/kg/injection, schedule: Q01DX015 (sc), vehicle: saline) was 91 % of control. For the same compound, the T/C (dose: 25.0 mg/kg/injection, schedule: Q01DX024 (sc), vehicle: saline) was 244 % of control, the T/C (dose: 31.25 mg/kg/injection, schedule: Q01DX010 (sc), vehicle: saline) was 186 % of control and the T/C (dose: 32.0 mg/kg/injection, schedule: Q01DX028 (sc), vehicle: saline) was 200 % of control and 208 % of control. For the same compound, the T/C (dose: 39.0 mg/kg/injection, schedule: Q01DX009 (sc), vehicle: saline) was 154 % of control, the T/C (dose: 39.0 mg/kg/injection, schedule: Q01DX Z (sc), vehicle: saline) was 150 % of control and the T/C (dose: 48.0 mg/kg/injection, schedule: Q01DX028 (sc), vehicle: saline) was 100 % of control. For the same compound, the T/C (dose: 50.0 mg/kg/injection, schedule: Q01DX009 (ip), vehicle: saline) was 259 % of control and 88 % of control, the T/C (dose: 50.0 mg/kg/injection, schedule: Q01DX011 (sc), vehicle: saline) was 190 % of control and the T/C (dose: 50.0 mg/kg/injection, schedule: Q01DX015 (sc), vehicle: saline) was 211 % of control. For the same compound, the T/C (dose: 50.0 mg/kg/injection, schedule: Q01DX024 (sc), vehicle: saline) was 223 % of control, the T/C (dose: 64.0 mg/kg/injection, schedule: Q01DX028 (sc), vehicle: saline) was 168 % of control and the T/C (dose: 65.0 mg/kg/injection, schedule: Q07DX004 (sc), vehicle: saline) was 197 % of control. For the same compound, the T/C (dose: 125.0 mg/kg/injection, schedule: Q01DX010 (sc), vehicle: saline) was 100 % of control, the T/C (dose: 128.0 mg/kg/injection, schedule: Q01DX028 (sc), vehicle: saline) was 97 % of control and the T/C [1] was 97 % of control.
For N=[N+]=CC(=O)OCC(N)C(=O)O (stereo not given), the T/C (dose: 1.8 mg/kg/injection, schedule: Q01DX028 (sc), vehicle: water) was 89 % of control, the T/C (dose: 3.0 mg/kg/injection, schedule: Q01DX028 (sc), vehicle: water) was 102 % of control and the T/C (dose: 14.0 mg/kg/injection, schedule: Q01DX028 (sc), vehicle: water) was 97 % of control.
